Laboratory results: PubChem BioAssay (NCI)
“And” between values parts separate entries of the source, which are not always exact repeats. Identical values can stand only once.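 A five-concentration, 48-hour dose response in 96-well plates underlies each endpoint, interpolated linearly between surrounding concentrations. GI50: concentration for 50% inhibition of growth. The concentration for full growth arrest is given as TGI.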

System: MDA-MB-468 breast
Experiment: NCI tumour cell line growth inhibition, 48 h

Row | SMILES | GI50 | TGI
1 | COc1ccc(CN=C(N)N=C(N)N)cc1OC | 47.6 µM | 477 µM
2 | COc1cc(NC(=O)c2cc(O)c(C/C=C(\C)CCC=C(C)C)c(O)c2)cc2c1O[C@]1(C)CC[C@@H](O)C(C)(C)[C@H]1C2 | 2 µM | 8.08 µM
3 | c1ccc(/C(=N\Nc2ccc3ccccc3n2)c2ccccn2)cc1 | 0.364 µM | 5.82 µM
4 | O=C(CN1C(=O)S/C(=C\C(Cl)=C\c2ccccc2)C1=O)NCCCn1ccnc1 | 1.35 µM | 4.19 µM
5 | CCCC(CCC)C(=O)OCC1(CO)C/C(=C\c2ccc(C(F)(F)F)cc2)C(=O)O1 (stereo not given) | 16.6 µM | 32.9 µM
6 | Cc1ccc(-c2c3c(N)c4c(nc3nc3c2c(C)nn3-c2ccccc2)CCC4)cc1 | 1.97 µM | 5.15 µM
7 | C=C1C(=O)O[C@H]2[C@H]1CC/C(CNC(=O)/C=C/c1ccc(Cl)cc1Cl)=C\CC[C@@]1(C)O[C@@H]21 | 0.396 µM | 1.47 µM
8 | CC1=NN(C(=O)c2nn(-c3ccc(Cl)cc3)cc2O)C(=O)C1 | 4.92 µM | 97 µM
9 | O=[N+]([O-])c1cc2c(ccc3occc32)o1 | 3.18 µM | 17.1 µM
10 | CN(C)N=Nc1nn(C(=O)Nc2ccc(Cc3ccccc3)cc2)c2ccccc12 | 2.94 µM | > 100 µM
11 | Nc1nc(Cl)nc2c1ncn2[C@@H]1O[C@H](COS(N)(=O)=O)[C@@H](O)[C@H]1O | 0.0176 µM | 0.0468 µM and 0.0396 µM
12 | NS(=O)(=O)c1ccc(N2N=C(c3cccs3)CC2c2ccccc2O)cc1 (stereo not given) | 0.717 µM | 3.89 µM
13 | Cc1ccc(S(=O)(=O)Nc2cc(Sc3ccccc3)c(O)c3ccccc23)cc1 | 1.38 µM | 3.36 µM
14 | NCCSC(C[N+](=O)[O-])c1ccccc1Cl (stereo not given) | 2.38 µM | 6.5 µM
15 | CN(CCCN(C)CCC1CCCCC1)CCC1CCCCC1 | 1.3 µM | 2.66 µM
16 | Oc1ccc(O)c2c1C1(Cl)C(Cl)=C(Cl)C2(Cl)C1(Cl)Cl | 3.71 µM | 12.8 µM
17 | CN(C)c1ncnc2c1ccn2C1OC(CO)C(O)C1O (stereo not given) | 0.231 µM | 1 µM
18 | O=c1[nH]nc(-c2ccccc2)c2c(-c3ccccc3)onc12 | 0.424 µM | > 100 µM
19 | COc1cc2c3c(n(CCCNCC4CC4)c(=O)c2cc1OC)-c1cc2c(cc1C3=O)OCO2 | 1.54 µM | 9.66 µM

Row | SMILES | GI50 | TGI
20 | Cc1ccccc1NC(=O)c1cc2ccccc2cc1O | 2.64 µM | 7.89 µM
21 | O=C1C=C(OCCCl)C(=O)c2c(O)ccc(O)c21 | 1.64 µM | 3.86 µM
22 | COc1cc2nc(N3CCC[C@@H](NC4=CC(=O)c5ccccc5C4=O)C3)nc(N)c2cc1OC | 1.81 µM | 3.77 µM
23 | O=CN1N=C(c2ccc(Nc3ccnc4cc(Cl)ccc34)cc2)CC1c1ccc(Cl)cc1 (stereo not given) | 0.318 µM | 8.33 µM
24 | COc1ccc2c(c1)C=C1CSCC3=Cc4cc(OC)ccc4OC13O2 | 0.347 µM | 
25 | Cn1ncnc1C1c2n[nH]c(=O)c3cc(F)cc(c23)NC1c1ccc(F)cc1 (stereo not given) | 3.74 µM | > 100 µM
26 | O=C(N/N=C/c1ccc(Br)s1)c1[nH]c2ccc(Br)cc2c1-c1ccccc1 | 0.327 µM | 4.89 µM
27 | CCc1nc(N)nc(N)c1C#CC(C)c1cc(-c2ccnc(C)c2)c2oc(C)nc2c1 (stereo not given) | 0.103 µM | 3 µM
28 | CCc1c2c(nc3ccc(OCc4ccc(B5OC(C)(C)C(C)(C)O5)cc4)cc13)-c1cc3c(c(=O)n1C2)COC(=O)[C@]3(O)CC | < 0.01 µM | 0.0432 µM
29 | O=C1COCCN1c1ccc(NCc2cn(C(=O)c3ccc(Cl)cc3)c3ccccc23)cc1 | 0.101 µM | 0.286 µM
30 | CCCCN(CCCC)CCC(O)c1cc2ccc(C(F)(F)F)cc2c2cc(C(F)(F)F)ccc12 (stereo not given) | 1.68 µM | 3.46 µM
31 | O=C1NC(SCc2ccc(F)cc2)=N/C1=C/c1cccc(OCc2ccc(Cl)cc2)c1 | 15.8 µM | > 100 µM
32 | Nc1ccc(-c2nnc(SCc3ccc(O)c4ncccc34)n2-c2ccccc2)cc1 | 0.0358 µM | 1.85 µM
33 | Cc1c(C(N)=O)sc2c1c(=O)n(Cc1ccccc1)c1nnc(S(=O)(=O)CC(=O)Nc3ccc(Cl)cc3)n21 | 12.7 µM | 36.3 µM
34 | N/C(=N\c1nc2c(Br)cccc2s1)C(Br)Br | 2.57 µM | 9.69 µM
35 | COC(=O)Nc1nc2ccc(S(=O)(=O)c3ccc(NC(=O)Nc4cc(C(F)(F)F)ccc4F)cc3)cc2[nH]1 | > 25 µM | > 25 µM
36 | O=C(Cn1c2ccccc2c2ccncc21)N/N=C\c1ccc2ccccc2c1 | 24.4 µM | 65.5 µM
37 | CNC(=O)c1cncc(/C=C/c2c(Cl)cccc2Cl)c1 | 4.08 µM | > 19.1 µM
38 | CNc1ncc2cc(Oc3ccc(F)cc3F)c(=O)n(C)c2n1 | > 25 µM | > 25 µM
